By pIC50 is commonly meant the negative decadic logarithm of the IC50, by convention in mol/L. A high value points to a low IC50.

pIC50: −log10 of the molar value.

The test deals with T1, RORc ligand binding domain (Homo sapiens, UniProt P51449).
T1 construct: host or cells: E. coli
T1 sequence (P51449 269-508 limits assumed): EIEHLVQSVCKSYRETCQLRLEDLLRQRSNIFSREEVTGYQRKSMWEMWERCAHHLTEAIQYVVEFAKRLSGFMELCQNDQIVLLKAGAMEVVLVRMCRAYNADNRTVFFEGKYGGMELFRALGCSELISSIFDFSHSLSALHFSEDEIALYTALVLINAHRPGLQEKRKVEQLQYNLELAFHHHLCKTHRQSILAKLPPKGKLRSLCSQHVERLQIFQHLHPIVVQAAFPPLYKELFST
Nature of the test: In vitro RORc ligand binding assay (25-[3H]hydroxycholesterol displacement, filter binding). Particulars: 6 nM 25-[3H]hydroxycholesterol, 0.6 ug/mL RORc receptor, 3 h at 25° C. Put shortly: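 Filter-binding displacement of 6 nM 25-[3H]hydroxycholesterol from RORc receptor (0.6 ug/mL) in 50 mM HEPES pH 7.4, 150 mM NaCl, 5 mM MgCl2, 1 mM DTT, 0.01% BSA, 5% DMSO; 3 h at 25° C. NSB defined with 1 uM 25-hydroxycholesterol; scintillation counting gave Kiapp, IC50 or % inhibition (screening at 1 and 10 uM).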
On to `Cc1nc([C@@]23CC[C@@H](c4cc(-c5c(F)cccc5F)nnc42)C3(C)C)no1` [Example 80, (5R,8R)-3-(2,6-difluorophenyl)-9,9-dimethyl-8-(5-methyl-1,2,4-oxadiazol-3-yl)-5,6,7,8-tetrahydro-5,8-methanocinnoline], for which the pIC50 was 6.87.
The molecule `CC(=O)N[C@@]12CC[C@@H](c3cc(-c4ccccc4F)nnc31)C2(C)C` [Example 81, N-[(5R,8R)-3-(2-fluorophenyl)-9,9-dimethyl-6,7-dihydro-5,8-methanocinnolin-8(5H)-yl]acetamide] gave a pIC50 of 5.68.
Consider `CN(C)C(=O)[C@@]12CC[C@@H](c3cc(-c4c(F)cccc4F)nnc31)C2(C)C` [Example 82, (5R,8R)-3-(2,6-difluorophenyl)-N,N,9,9-tetramethyl-6,7-dihydro-5,8-methanocinnoline-8(5H)-carboxamide], for which the negative-log IC50 (pIC50) was 6.07.
The value for `COCC(=O)N[C@@]12CC[C@@H](c3cc(-c4ccccc4F)nnc31)C2(C)C` [Example 83, N-[(5R,8R)-3-(2-fluorophenyl)-9,9-dimethyl-6,7-dihydro-5,8-methanocinnolin-8(5H)-yl]-2-methoxyacetamide] was 5.93; that for `Cc1nnc(NC(=O)[C@]23CC[C@H](c4cc(-c5c(F)cccc5F)nnc42)C3(C)C)o1` [Example 84, (5S,8S)-3-(2,6-difluorophenyl)-9,9-dimethyl-N-(5-methyl-1,3,4-oxadiazol-2-yl)-6,7-dihydro-5,8-methanocinnoline-8(5H)-carboxamide] was 6.00; that for `Cc1noc(NC(=O)[C@]23CC[C@H](c4cc(-c5c(F)cccc5F)nnc42)C3(C)C)n1` [Example 85, (5S,8S)-3-(2,6-difluorophenyl)-9,9-dimethyl-N-(3-methyl-1,2,4-oxadiazol-5-yl)-6,7-dihydro-5,8-methanocinnoline-8(5H)-carboxamide] was 5.25.
For `CC1(C)[C@@H]2CC[C@@]1(C(=O)N1CC(O)C1)c1nnc(-c3c(F)cccc3F)cc12` [Example 86, [(5S,8S)-3-(2,6-difluorophenyl)-9,9-dimethyl-6,7-dihydro-5,8-methanocinnolin-8(5H)-yl](3-hydroxyazetidin-1-yl)methanone], the negative-log IC50 (pIC50) is 7.01.
The value for `CC(C)C(=O)N[C@@]12CC[C@@H](c3cc(-c4ccccc4F)nnc31)C2(C)C` [Example 87, N-[(5R,8R)-3-(2-fluorophenyl)-9,9-dimethyl-6,7-dihydro-5,8-methanocinnolin-8(5H)-yl]-2-methylpropanamide] was 5.28.
In the case of `CC1(C)[C@H]2CC[C@]1(NC(=O)CO)c1nnc(-c3ccccc3F)cc12` [Example 88, N-[(5R,8R)-3-(2-fluorophenyl)-9,9-dimethyl-6,7-dihydro-5,8-methanocinnolin-8(5H)-yl]-2-hydroxyacetamide], the pIC50 is 5.84.
`CN(C)CC(=O)N[C@@]12CC[C@@H](c3cc(-c4ccccc4F)nnc31)C2(C)C` [Example 89, N-[(5R,8R)-3-(2-fluorophenyl)-9,9-dimethyl-6,7-dihydro-5,8-methanocinnolin-8(5H)-yl]-N~2~,N~2~- dimethylglycinamide] had a pIC50 of 5.28.
The value for `CN(C)[C@@]12CC[C@@H](c3cc(-c4ccccc4F)nnc31)C2(C)C` [Example 90, (5R,8R)-3-(2-fluorophenyl)-N,N,9,9-tetramethyl-6,7-dihydro-5,8-methanocinnolin-8(5H)-amine] was 6.72; that for `CONC(=O)[C@]12CC[C@H](c3cc(-c4c(F)cccc4F)nnc31)C2(C)C` [Example 91, (5S,8S)-3-(2,6-difluorophenyl)-N-methoxy-9,9-dimethyl-6,7-dihydro-5,8-methanocinnoline-8(5H)-carboxamide] was 6.42; that for `CC1(O)CN(C(=O)[C@]23CC[C@H](c4cc(-c5c(F)cccc5F)nnc42)C3(C)C)C1` [Example 92, [(5S,8S)-3-(2,6-difluorophenyl)-9,9-dimethyl-6,7-dihydro-5,8-methanocinnolin-8(5H)-yl](3-hydroxy-3-methylazetidin-1-yl)methanone] was 5.52.
For `CC1(C)[C@@H]2CC[C@@]1(C(=O)N1CC(F)C1)c1nnc(-c3c(F)cccc3F)cc12` [Example 93, [(5S,8S)-3-(2,6-difluorophenyl)-9,9-dimethyl-6,7-dihydro-5,8-methanocinnolin-8(5H)-yl](3-fluoroazetidin-1-yl)methanone], the pIC50 is 6.90.
The value for `CC(=O)Nc1ccc(-c2cc3c(nn2)[C@@]2(C)CC[C@@H]3C2(C)C)cn1` [Example 95, N-{5-[(5R,8S)-8,9,9-trimethyl-5,6,7,8-tetrahydro-5,8-methanocinnolin-3-yl]pyridin-2-yl}acetamide] was 5.48; that for `Cn1cc(-c2cc3c(nn2)[C@@]2(C)CC[C@@H]3C2(C)C)cn1` [Example 96, (5R,8S)-8,9,9-trimethyl-3-(1-methyl-1H-pyrazol-4-yl)-5,6,7,8-tetrahydro-5,8-methanocinnoline] was 5.26.
As to `CC1(C)[C@H]2CC[C@]1(C)c1nnc(Oc3c(F)cccc3Cl)cc12` [Example 97, (5R,8S)-3-(2-chloro-6-fluorophenoxy)-8,9,9-trimethyl-5,6,7,8-tetrahydro-5,8-methanocinnoline], the negative-log IC50 (pIC50) is 7.06.
With `CC1(C)[C@H]2CC[C@]1(C)c1nnc(Oc3ccccc3F)cc12` [Example 98, (5R,8S)-3-(2-fluorophenoxy)-8,9,9-trimethyl-5,6,7,8-tetrahydro-5,8-methanocinnoline], the negative logarithm of the IC50 (pIC50) is 6.22.
As to `CC1(C)[C@H]2CC[C@]1(C)c1nnc(Oc3c(F)cccc3F)cc12` [Example 99, (5R,8S)-3-(2,6-difluorophenoxy)-8,9,9-trimethyl-5,6,7,8-tetrahydro-5,8-methanocinnoline], the pIC50 is 6.55.
The value for `CC1CN(C(=O)[C@]23CC[C@H](c4cc(-c5c(F)cccc5F)nnc42)C3(C)C)C1` [Example 100, [(5S,8S)-3-(2,6-difluorophenyl)-9,9-dimethyl-6,7-dihydro-5,8-methanocinnolin-8(5H)-yl](3-methylazetidin-1-yl)methanone] was 7.15; that for `CC1(C)[C@H]2CC[C@]1(c1nnco1)c1nnc(-c3c(F)cccc3F)cc12` [Example 101] was 6.72; that for `CC1(C)[C@H]2CC[C@]1(c1ncco1)c1nnc(-c3c(F)cccc3F)cc12` [Example 102, (5R,8R)-3-(2,6-difluorophenyl)-9,9-dimethyl-8-(1,3-oxazol-2-yl)-5,6,7,8-tetrahydro-5,8-methanocinnoline] was 7.77.
Turning to `Cc1nnc([C@]23CC[C@H](c4cc(-c5c(F)cccc5F)nnc42)C3(C)C)o1` [Example 103, (5S,8S)-3-(2,6-difluorophenyl)-9,9-dimethyl-8-(5-methyl-1,3,4-oxadiazol-2-yl)-5,6,7,8-tetrahydro-5,8-methanocinnoline], the pIC50 is 6.69.
Molecule `CC1(C)[C@H]2CC[C@]1(c1cnco1)c1nnc(-c3c(F)cccc3F)cc12` [Example 104, (5R,8R)-3-(2,6-difluorophenyl)-9,9-dimethyl-8-(1,3-oxazol-5-yl)-5,6,7,8-tetrahydro-5,8-methanocinnoline] gave a negative logarithm of the IC50 (pIC50) of 6.65.
The value for `COc1nnc([C@@]23CC[C@@H](c4cc(-c5c(F)cccc5F)nnc42)C3(C)C)o1` [Example 105, (5R,8R)-3-(2,6-difluorophenyl)-8-(5-methoxy-1,3,4-oxadiazol-2-yl)-9,9-dimethyl-5,6,7,8-tetrahydro-5,8-methanocinnoline] was 6.58; that for `CC1(C)[C@H]2CC[C@]1(n1cnnc1)c1nnc(-c3c(F)cccc3F)cc12` [Example 107, (5R,8R)-3-(2,6-difluorophenyl)-9,9-dimethyl-8-(4H-1,2,4-triazol-4-yl)-5,6,7,8-tetrahydro-5,8-methanocinnoline] was 5.82.
Regarding `Cc1coc([C@@]23CC[C@@H](c4cc(-c5c(F)cccc5F)nnc42)C3(C)C)n1` [Example 108, (5R,8R)-3-(2,6-difluorophenyl)-9,9-dimethyl-8-(4-methyl-1,3-oxazol-2-yl)-5,6,7,8-tetrahydro-5,8-methanocinnoline], the negative logarithm of the IC50 (pIC50) is 7.02.
For `CC1(C)[C@H]2CC[C@]1(N1CCCC1=O)c1nnc(-c3c(F)cccc3F)cc12` [Example 109, 1-[(5R,8R)-3-(2,6-difluorophenyl)-9,9-dimethyl-6,7-dihydro-5,8-methanocinnolin-8(5H)-yl]pyrrolidin-2-one], the negative logarithm of the IC50 (pIC50) was 6.70.
The molecule `CC1(C)[C@@H]2CC[C@@]1(c1nnco1)c1nnc(-c3c(F)cccc3F)cc12` [Example 110, (5S,8S)-3-(2,6-difluorophenyl)-9,9-dimethyl-8-(1,3,4-oxadiazol-2-yl)-5,6,7,8-tetrahydro-5,8-methanocinnoline] had a negative logarithm of the IC50 (pIC50) of 6.73.
In turn, `CC1(C)[C@@H]2CC[C@@]1(c1nnc(CO)o1)c1nnc(-c3c(F)cccc3F)cc12` [Example 111, {5-[(5S,8S)-3-(2,6-difluorophenyl)-9,9-dimethyl-6,7-dihydro-5,8-methanocinnolin-8(5H)-yl]-1,3,4-oxadiazol-2-yl}methanol] had a pIC50 of 6.71.
`Cc1cnc([C@@]23CC[C@@H](c4cc(-c5c(F)cccc5F)nnc42)C3(C)C)o1` [Example 112, (5R,8R)-3-(2,6-difluorophenyl)-9,9-dimethyl-8-(5-methyl-1,3-oxazol-2-yl)-5,6,7,8-tetrahydro-5,8-methanocinnoline] showed a pIC50 of 7.57.
In the case of `CC1(C)[C@H]2CC[C@]1(c1ccn[nH]1)c1nnc(-c3c(F)cccc3F)cc12` [Example 113, (5R,8S)-3-(2,6-difluorophenyl)-9,9-dimethyl-8-(1H-pyrazol-5-yl)-5,6,7,8-tetrahydro-5,8-methanocinnoline] it was 7.37.

(Values after patent US9981916B2 (Genentech, Inc., priority 2013, dated 2018).)
